The subject of data set [1] is longitudinal muscle plexusmyentericus preparation of guinea pig ileum. Kind of data set: opiate-like activity on electrically stimulated guinea pig ileum preparation. Type of data set: cell-based. The settings on record: guinea pig intestine preparation; naloxon-reversible restriction of contractions.
For another data set, the system named is Pronase E (Merck). Kind of data set: resistance against proteases (Pronase E incubation, then opiate test). As to conditions: 0.02 mg Pronase E, tris-buffer pH 8, 37° C., 1 to 4 hours; compared with control without enzyme. Type of data set: in vitro ADME. On the procedure:
As proof of the resistance against proteases we would like to cite an example: 0.3 mg β-casomorphin-7 was incubated in 0.6 ml tris-buffer pH 8 with 0.02 mg Pronase E (Merck) at 37° C. for 1 to 4 hours. After the end of the incubation, the mixture, for the purpose of destroying the Pronase, was heated at 95° C. for 15 minutes.

Ends that are not written are not given here. Peptide text beside a SMILES is read from it.

For the compound `COC(=O)CNC(=O)[C@@H]1CCCN1C(=O)[C@H](Cc1ccccc1)NC(=O)[C@@H]1CCCN1C(=O)[C@@H](N)Cc1ccc(O)cc1` [Tyr-Pro-Phe-Pro-Gly-methyl ester] (H-YPFPG-OMe), in data set [1], the opiate-like activity result was “strong specific opiate-like activity”.
As to `COC(=O)CNC(=O)[C@@H]1CCCN1C(=O)[C@H](Cc1ccccc1)NC(=O)[C@@H]1CCCN1` [end product 4b, Pro-Phe-Pro-Gly-metester] (H-PFPG-OMe), in data set [1], the opiate-like activity result is “did not result in any opiate-like activity”.
On to “YPFPGPI [β-casomorphin-7, Tyr-Pro-Phe-Pro-Gly-Pro-Ile]”, for which the “loss of opiate activity after protease incubation” value in the data set on Pronase E (Merck) is listed as “did not result in any loss of opiate activity”.
On to casein, for which the opiate-like activity result in data set [1] is “neither the casein itself nor its chloroform/methanol (65/35, vol/vol) extracts, shows a pharmacological, in this case an opiate-like, activity”.
Consider “methionine-enkephalin [reference compound]”, for which, in the data set on Pronase E (Merck), the “loss of opiate activity after protease incubation” value was “completely lost the opiate activity”.

The record behind these values is patent US4681871A, “Pharmacologically active peptides” (priority 1979, dated 1987).
